Laboratory results as given in patent US8530667B2, “Herbicides” (Syngenta Limited, priority 2007, dated 2013).

Tests used:
Type in all cases: in vivo
[1] = tested on: Alopecurus myosuroides (ALOMY); assay: Example A pre-emergence herbicidal activity, glasshouse pot test; details: evaluated 19 or 20 days later, read-out: Pre-Emergence Activity ALOMY (100=total damage to plant; 0=no damage to plant); for pest or weed control at 250 g/ha: Rate 250 g/ha
Procedure: (§1) Seeds of a variety of test species were sown in standard soil in pots. After cultivation for one day (pre-emergence) or after 10 days cultivation (post-emergence) under controlled conditions in a glasshouse, the plants were sprayed with an aqueous spray solution derived from the formulation of the technical active ingredient in 0.6 ml acetone and 45 ml formulation solution containing 10.6% Emulsogen EL (Registry number 61791-12-6), 42.2% N-methylpyrrolidone, 42.2% dipropylene glycol monomethyl ether (Registry number 34590-94-8) and 0.2% X-77 (Registry number 11097-66-8). The test plants were then grown in a greenhouse under optimum conditions until, 14 or 15 days later for post-emergence and 19 or 20 days for pre-emergence, the test was evaluated (100=total damage to plant; 0=no damage to plant). Alopecurus myosuroides (ALOMY), Avena fatua (AVEFA), Lolium perenne (LOLPE), Setaria faberi (SETFA), Digitaria sanguinalis (DIGSA), Echinochloa crus-galli (ECHCG)

[2] = tested on: Avena fatua (AVEFA); assay: as above; details: evaluated 19 or 20 days later, read-out: Pre-Emergence Activity AVEFA (100=total damage to plant; 0=no damage to plant); for pest or weed control at 250 g/ha: Rate 250 g/ha
Procedure: as §1

[3] = tested on: Digitaria sanguinalis (DIGSA); assay: as above; details: evaluated 19 or 20 days later, read-out: Pre-Emergence Activity DIGSA (100=total damage to plant; 0=no damage to plant); for pest or weed control at 250 g/ha: Rate 250 g/ha
Procedure: as §1

[4] = tested on: Echinochloa crus-galli (ECHCG); assay: as above; details: evaluated 19 or 20 days later, read-out: Pre-Emergence Activity ECHCG (100=total damage to plant; 0=no damage to plant); for pest or weed control at 250 g/ha: Rate 250 g/ha
Procedure: as §1

[5] = tested on: Lolium perenne (LOLPE); assay: as above; details: evaluated 19 or 20 days later, read-out: Pre-Emergence Activity LOLPE (100=total damage to plant; 0=no damage to plant); for pest or weed control at 250 g/ha: Rate 250 g/ha
Procedure: as §1

[6] = tested on: Setaria faberi (SETFA); assay: as above; details: evaluated 19 or 20 days later, read-out: Pre-Emergence Activity SETFA (100=total damage to plant; 0=no damage to plant); for pest or weed control at 250 g/ha: Rate 250 g/ha
Procedure: as §1

[7] = tested on: Alopecurus myosuroides (ALOMY); assay: Example A post-emergence herbicidal activity, glasshouse pot test; details: Rate 125 g/ha, evaluated 14 or 15 days later, read-out: Post-Emergence Activity ALOMY (100=total damage to plant; 0=no damage to plant)
Procedure: as §1

[8] = tested on: Avena fatua (AVEFA); assay: as above; details: Rate 125 g/ha, evaluated 14 or 15 days later, read-out: Post-Emergence Activity AVEFA (100=total damage to plant; 0=no damage to plant)
Procedure: as §1

[9] = tested on: Digitaria sanguinalis (DIGSA); assay: as above; details: Rate 125 g/ha, evaluated 14 or 15 days later, read-out: Post-Emergence Activity DIGSA (100=total damage to plant; 0=no damage to plant)
Procedure: as §1

[10] = tested on: Echinochloa crus-galli (ECHCG); assay: as above; details: Rate 125 g/ha, evaluated 14 or 15 days later, read-out: Post-Emergence Activity ECHCG (100=total damage to plant; 0=no damage to plant)
Procedure: as §1

[11] = tested on: Lolium perenne (LOLPE); assay: as above; details: Rate 125 g/ha, evaluated 14 or 15 days later, read-out: Post-Emergence Activity LOLPE (100=total damage to plant; 0=no damage to plant)
Procedure: as §1

[12] = tested on: Setaria faberi (SETFA); assay: as above; details: Rate 125 g/ha, evaluated 14 or 15 days later, read-out: Post-Emergence Activity SETFA (100=total damage to plant; 0=no damage to plant)
Procedure: as §1

[13] = tested on: Alopecurus myosuroides (ALOMY); assay: Example B pre-emergence herbicidal activity, glasshouse pot test; details: 312 h, Rate 250 g/ha, evaluated after 13 days, read-out: Pre-Emergence Activity ALOMY (100=total damage to plant; 0=no damage to plant)
Procedure: (§2) Seeds of a variety of test species were sown in standard soil in pots. After cultivation for one day (pre-emergence) or after 8 days cultivation (post-emergence) under controlled conditions in a glasshouse (at 24/16° C., day/night; 14 hours light; 65% humidity), the plants were sprayed with an aqueous spray solution derived from the formulation of the technical active ingredient in acetone/water (50:50) solution containing 0.5% Tween 20 (polyoxyethelyene sorbitan monolaurate, CAS RN 9005-64-5). The test plants were then grown in a glasshouse under controlled conditions in a glasshouse (at 24/16° C., day/night; 14 hours light; 65% humidity) and watered twice daily. After 13 days for pre and post-emergence, the test was evaluated (100=total damage to plant; 0=no damage to plant). Alopecurus myosuroides (ALOMY), Avena fatua (AVEFA), Setaria faberi (SETFA), Echinochloa crus-galli (ECHCG) and Amaranthus retoflexus (AMARE)

[14] = tested on: Amaranthus retoflexus (AMARE); assay: as above; details: Amaranthus retroflexus, 312 h, Rate 250 g/ha, evaluated after 13 days, read-out: Pre-Emergence Activity AMARE (100=total damage to plant; 0=no damage to plant)
Procedure: as §2

[15] = tested on: Avena fatua (AVEFA); assay: as above; details: 312 h, Rate 250 g/ha, evaluated after 13 days, read-out: Pre-Emergence Activity AVEFA (100=total damage to plant; 0=no damage to plant)
Procedure: as §2

[16] = tested on: Echinochloa crus-galli (ECHCG); assay: as above; details: 312 h, Rate 250 g/ha, evaluated after 13 days, read-out: Pre-Emergence Activity ECHCG (100=total damage to plant; 0=no damage to plant)
Procedure: as §2

[17] = tested on: Setaria faberi (SETFA); assay: as above; details: 312 h, Rate 250 g/ha, evaluated after 13 days, read-out: Pre-Emergence Activity SETFA (100=total damage to plant; 0=no damage to plant)
Procedure: as §2

[18] = tested on: Alopecurus myosuroides (ALOMY); assay: Example B post-emergence herbicidal activity, glasshouse pot test; details: 312 h, rate 250 g/ha, evaluated after 13 days, read-out: Post-emergence activity ALOMY (100=total damage to plant; 0=no damage to plant)
Procedure: as §2

[19] = tested on: Amaranthus retoflexus (AMARE); assay: as above; details: Amaranthus retroflexus, 312 h, rate 250 g/ha, evaluated after 13 days, read-out: Post-emergence activity AMARE (100=total damage to plant; 0=no damage to plant)
Procedure: as §2

[20] = tested on: Avena fatua (AVEFA); assay: as above; details: 312 h, rate 250 g/ha, evaluated after 13 days, read-out: Post-emergence activity AVEFA (100=total damage to plant; 0=no damage to plant)
Procedure: as §2

[21] = tested on: Echinochloa crus-galli (ECHCG); assay: as above; details: 312 h, rate 250 g/ha, evaluated after 13 days, read-out: Post-emergence activity ECHCG (100=total damage to plant; 0=no damage to plant)
Procedure: as §2

[22] = tested on: Setaria faberi (SETFA); assay: as above; details: 312 h, rate 250 g/ha, evaluated after 13 days, read-out: Post-emergence activity SETFA (100=total damage to plant; 0=no damage to plant)
Procedure: as §2

Row | SMILES | pest or weed control at 125 g/ha [7] [%] | pest or weed control at 125 g/ha [8] [%] | pest or weed control at 125 g/ha [9] [%] | pest or weed control at 125 g/ha [10] [%] | pest or weed control at 125 g/ha [11] [%] | pest or weed control at 125 g/ha [12] [%] | pest or weed control at 250 g/ha [13] [%] | pest or weed control at 250 g/ha [14] [%] | pest or weed control at 250 g/ha [15] [%] | pest or weed control at 250 g/ha [16] [%] | pest or weed control at 250 g/ha [17] [%] | pest or weed control at 250 g/ha [18] [%] | pest or weed control at 250 g/ha [19] [%] | pest or weed control at 250 g/ha [20] [%] | pest or weed control at 250 g/ha [21] [%] | pest or weed control at 250 g/ha [22] [%] | also measured
1 | Cc1sc(-c2ccc(Cl)nc2)nc1C1C(=O)[C@@H]2[C@H](C1=O)[C@H]1CC[C@@H]2O1 (some centres unmarked) [Compound T30] | 0 | 10 | 70 | 70 | 20 | 40 | – | – | – | – | – | – | – | – | – | – | pest or weed control at 250 g/ha [1]: 10%; pest or weed control at 250 g/ha [2]: 30%; pest or weed control at 250 g/ha [3]: 60%; pest or weed control at 250 g/ha [4]: 80%; pest or weed control at 250 g/ha [5]: 40%; pest or weed control at 250 g/ha [6]: 70%
2 | Cc1nc(-c2cc(C3C(=O)[C@@H]4[C@H](C3=O)[C@H]3CC[C@@H]4O3)c(C)s2)cs1 (some centres unmarked) [Compound T7] | 0 | 0 | 0 | 50 | 0 | 0 | – | – | – | – | – | – | – | – | – | – | pest or weed control at 500 g/ha ([1]; Rate 500 g/ha): 10%; pest or weed control at 500 g/ha ([2]; Rate 500 g/ha): 10%; pest or weed control at 500 g/ha ([3]; Rate 500 g/ha): 20%; pest or weed control at 500 g/ha ([4]; Rate 500 g/ha): 0%; pest or weed control at 500 g/ha ([5]; Rate 500 g/ha): 10%; pest or weed control at 500 g/ha ([6]; Rate 500 g/ha): 0%
3 | Cc1sc(-c2ccc(Cl)cc2)cc1C1=C(OC(=O)C(C)(C)C)[C@@H]2[C@H](C1=O)[C@H]1CC[C@@H]2O1 (racemic) [Compound P1] | 70 | 80 | 80 | 100 | 60 | 90 | – | – | – | – | – | – | – | – | – | – | pest or weed control at 250 g/ha [1]: 30%; pest or weed control at 250 g/ha [2]: 0%; pest or weed control at 250 g/ha [3]: 0%; pest or weed control at 250 g/ha [4]: 20%; pest or weed control at 250 g/ha [5]: 30%; pest or weed control at 250 g/ha [6]: 0%
4 | Cc1sc(-c2ccc(OC(F)F)cc2F)nc1C1C(=O)[C@@H]2[C@H](C1=O)[C@H]1CC[C@@H]2O1 (some centres unmarked) [Compound T54] | – | – | – | – | – | – | 90 | 0 | 100 | 100 | 100 | 100 | 40 | 100 | 100 | 100 | –
5 | CCc1sc(COc2ccc(Cl)cc2)nc1C1C(=O)[C@@H]2[C@H](C1=O)[C@H]1CC[C@@H]2O1 (some centres unmarked) [Compound T40] | – | – | – | – | – | – | 90 | 0 | 40 | 100 | 100 | 100 | 0 | 70 | 100 | 100 | –
6 | CCc1sc(-c2ccc(Br)cc2C)nc1C1=C(OC(=O)c2ccc(Cl)cc2)[C@@H]2[C@H](C1=O)[C@H]1CC[C@@H]2O1 (racemic) [Compound P8] | – | – | – | – | – | – | 90 | 0 | 30 | 100 | 100 | 100 | 0 | 100 | 100 | 100 | –
7 | CCc1sc(-c2cc(F)c(Cl)cc2Cl)nc1C1C(=O)[C@@H]2[C@H](C1=O)[C@H]1CC[C@@H]2O1 (some centres unmarked) [Compound T47] | – | – | – | – | – | – | 90 | 0 | 80 | 90 | 100 | 100 | 0 | 100 | 100 | 100 | –
8 | CC(=O)OC1=C(c2nc(-c3ccc(Br)cn3)sc2C)C(=O)[C@H]2[C@@H]1[C@@H]1CC[C@H]2O1 (racemic) [Compound P5] | – | – | – | – | – | – | 50 | 0 | 70 | 90 | 100 | 90 | 0 | 90 | 100 | 100 | –
